# Assay results taken from patent EP4790066A1, “GLP-1R/GIPR/GCGR TRIPLE AGONIST ANALOGUE AND USE THEREOF” (Shenzhen Bay Laboratory, priority 2023, dated 2025).
# *1 amine or outer side, *2 acyl side, *3 side chain or, on linkers, in order; H or OH if unused. Where a SMILES comes first, the peptide text is derived from it. Bridges are numbered along the chain shown (N, C = ends). [ ]: non-standard residue; d: D form. X1 = O=C(O)CCCCCCCCCCCCCCCCCCC(=O)N[C@@H](CCCCNC(=O)COCCOCCNC(=O)COCCOCCNC(=O)CCC(=O)N(CCNC(=O)C[*:1])CCNC(=O)C[*:2])C(=O)O; αMeL = CC(C)C[C@](C)(N)C(=O)O; Dab = NCC[C@H](N)C(=O)O; Aib = CC(C)(N)C(=O)O
# What was measured:
# Format in all cases: cell-based
# GLP-1R = target: T1, GLP-1R (Homo sapiens, UniProt P43220); assay: CreLuc method (CRE-luciferase reporter), HEK293/pGM-CREB-L-Luc/GLP-1R pool; details: 6 h incubation, read-out: EC50 (pM) for each receptor GLP-1R
# T1 construct: expressed in transfected cells
# Procedure: (§1) 1. Insulinotropic analogues can bind to the target receptor on the cell membrane, activate the cAMP response element (CRE), and initiate the expression of downstream luciferase. The expression level is positively correlated with the biological activity of the analogue being tested. After activation, luciferase substrate is added for chemiluminescence detection, and the luminescence intensity is determined to characterize the biological activity of the test compounds. Therefore, the target peptide derivatives (or polypeptide derivatives, i.e., TG1-TG94) prepared in Example 1 and Example 2 can be tested by the CreLuc method. The specific steps are as follows: The stably transfected cell lines HEK293/pGM-CREB-L-Luc/GLP-1R pool, HEK293/pGM-CREB-L-Luc/GIPR pool, and 293HEK/pGM-CREB-L-Luc/GCGR pool were constructed. […] The corresponding test cells were digested (1 min), dispersed by pipetting, and centrifuged (1000 rpm, 5 min). The culture medium was discarded, and the cells were resuspended in freestyle medium, centrifuged again, collected, and counted. The cells were then diluted to a cell density of 5 x 10^5 cells/mL and then added to the detection wells of a 384-well plate (40 µL/20,000 cells/well). Echo was used to add the corresponding analyte dilution series. The cell plate was incubated at 37°C and 5% CO2 for 6 h, then ONE-GLO (20 µL/well) was added for detection. It was kept in the dark for 3 min, then a chemiluminescent microplate reader was used for determination. The plate was read within 30 min, and the determination results were recorded. […] Table 3: EC50 values for target peptide derivatives
# GIPR = target: T2, GIPR (Homo sapiens, UniProt P48546); assay: CreLuc method (CRE-luciferase reporter), HEK293/pGM-CREB-L-Luc/GIPR pool; details: 6 h incubation, read-out: EC50 (pM) for each receptor GIPR
# T2 construct: expressed in transfected cells
# T2 sequence (P48546 22-466): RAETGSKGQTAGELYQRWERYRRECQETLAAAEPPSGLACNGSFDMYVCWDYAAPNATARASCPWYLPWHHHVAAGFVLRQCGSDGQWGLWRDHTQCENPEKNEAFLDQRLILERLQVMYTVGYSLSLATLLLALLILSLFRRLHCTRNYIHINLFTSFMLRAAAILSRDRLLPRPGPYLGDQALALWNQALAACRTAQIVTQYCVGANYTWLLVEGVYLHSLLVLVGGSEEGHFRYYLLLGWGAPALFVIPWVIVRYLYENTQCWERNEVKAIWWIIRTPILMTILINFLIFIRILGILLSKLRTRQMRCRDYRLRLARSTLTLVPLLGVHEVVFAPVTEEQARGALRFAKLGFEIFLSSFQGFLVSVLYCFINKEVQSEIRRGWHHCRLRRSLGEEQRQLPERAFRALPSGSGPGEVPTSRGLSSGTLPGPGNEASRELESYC
# Procedure: as §1
# GCGR = target: T3, GCGR (Homo sapiens, UniProt P47871); assay: CreLuc method (CRE-luciferase reporter), 293HEK/pGM-CREB-L-Luc/GCGR pool; details: 6 h incubation, read-out: EC50 (pM) for each receptor GCGR
# T3 construct: expressed in transfected cells
# Procedure: as §1
# T3 sequence (P47871 26-477, species assumed): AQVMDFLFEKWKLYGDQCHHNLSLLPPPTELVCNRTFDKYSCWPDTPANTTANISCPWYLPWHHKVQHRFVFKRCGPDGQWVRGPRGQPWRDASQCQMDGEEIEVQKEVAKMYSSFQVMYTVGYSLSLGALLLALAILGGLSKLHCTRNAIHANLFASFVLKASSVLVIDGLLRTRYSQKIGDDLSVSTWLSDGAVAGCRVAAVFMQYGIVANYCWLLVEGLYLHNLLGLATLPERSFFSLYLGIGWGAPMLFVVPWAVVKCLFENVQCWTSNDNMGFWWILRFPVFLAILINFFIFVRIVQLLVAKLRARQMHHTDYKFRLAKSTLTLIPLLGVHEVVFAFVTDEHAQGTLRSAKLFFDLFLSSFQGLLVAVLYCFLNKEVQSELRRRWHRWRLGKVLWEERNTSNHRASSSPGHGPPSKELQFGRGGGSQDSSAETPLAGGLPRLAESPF
# T1 sequence (P43220 24-463, species assumed): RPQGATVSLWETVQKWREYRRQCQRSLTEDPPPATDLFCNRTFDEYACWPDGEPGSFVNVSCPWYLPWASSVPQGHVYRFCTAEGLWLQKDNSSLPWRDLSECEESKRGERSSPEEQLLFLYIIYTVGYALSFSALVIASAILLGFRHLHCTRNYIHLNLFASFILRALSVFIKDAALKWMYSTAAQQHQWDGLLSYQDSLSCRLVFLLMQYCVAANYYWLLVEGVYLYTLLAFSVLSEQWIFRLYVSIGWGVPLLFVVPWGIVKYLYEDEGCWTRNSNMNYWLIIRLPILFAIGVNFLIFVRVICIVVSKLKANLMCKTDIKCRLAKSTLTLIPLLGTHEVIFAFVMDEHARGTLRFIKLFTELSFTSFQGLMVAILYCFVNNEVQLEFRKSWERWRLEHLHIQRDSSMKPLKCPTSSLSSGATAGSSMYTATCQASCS
SMILES,EC50 (GLP-1R) [pM],EC50 (GIPR) [pM],EC50 (GCGR) [pM]
CC[C@H](C)[C@@H]1NC(=O)[C@H](Cc2ccccc2)NC(=O)[C@@H](NC(=O)[C@H](Cc2c[nH]cn2)NC(=O)[C@H](CCC(N)=O)NC(=O)[C@H](C)NC(=O)[C@H](CCCCNC(C)=O)NC(=O)[C@H](CCCCN)NC(=O)[C@H](CC(=O)O)NC(=O)[C@H](CC(C)C)NC(=O)[C@](C)(CC(C)C)NC(=O)[C@@H](NC(=O)[C@H](CO)NC(=O)[C@H](Cc2ccc(O)cc2)NC(=O)[C@H](CC(=O)O)NC(=O)[C@H](CO)NC(=O)[C@@H](NC(=O)[C@H](Cc2ccccc2)NC(=O)[C@@H](NC(=O)CNC(=O)[C@H](CCC(N)=O)NC(=O)C(C)(C)NC(=O)[C@@H](N)Cc2ccc(O)cc2)[C@@H](C)O)[C@@H](C)O)[C@@H](C)CC)CSCC(=O)NCCN(C(=O)CCC(=O)NCCOCCOCC(=O)NCCOCCOCC(=O)NCCCC[C@H](NC(=O)CCCCCCCCCCCCCCCCCCC(=O)O)C(=O)O)CCNC(=O)CSC[C@@H](C(=O)NCC(=O)NCC(=O)N2CCC[C@H]2C(=O)N[C@@H](CO)C(=O)N[C@@H](CO)C(=O)NCC(=O)N[C@@H](C)C(=O)N2CCC[C@H]2C(=O)N2CCC[C@H]2C(=O)N2CCC[C@H]2C(=O)N[C@@H](CO)C(N)=O)NC(=O)[C@H](CC(C)C)NC(=O)[C@H](CC(C)C)NC(=O)[C@H](Cc2ccc(O)cc2)NC(=O)[C@H](CCC(=O)O)NC1=O [TG32] (H-Y[Aib]QGTFTSDYSI[αMeL]LDKK(Ac)AQHCFIEYLLCGGPSSGAPPPS-NH2; linker 21-28 via X1),34,11.7,197
CC[C@H](C)[C@@H]1NC(=O)[C@H](Cc2ccccc2)NC(=O)[C@@H](NC(=O)C(C)(C)NC(=O)[C@H](CCC(N)=O)NC(=O)[C@H](C)NC(=O)[C@H](CCCCNC(C)=O)NC(=O)[C@H](CCCCN)NC(=O)[C@H](CC(=O)O)NC(=O)[C@H](CC(C)C)NC(=O)[C@](C)(CC(C)C)NC(=O)[C@@H](NC(=O)[C@H](CO)NC(=O)[C@H](Cc2ccc(O)cc2)NC(=O)[C@H](CC(=O)O)NC(=O)[C@H](CO)NC(=O)[C@@H](NC(=O)[C@H](Cc2ccccc2)NC(=O)[C@@H](NC(=O)CNC(=O)[C@H](Cc2c[nH]cn2)NC(=O)C(C)(C)NC(=O)[C@@H](N)Cc2ccc(O)cc2)[C@@H](C)O)[C@@H](C)O)[C@@H](C)CC)CSCC(=O)NCCN(C(=O)CCC(=O)NCCOCCOCC(=O)NCCOCCOCC(=O)NCCCC[C@H](NC(=O)CCCCCCCCCCCCCCCCCCC(=O)O)C(=O)O)CCNC(=O)CSC[C@@H](C(=O)NCC(=O)NCC(=O)N2CCC[C@H]2C(=O)N[C@@H](CO)C(=O)N[C@@H](CO)C(=O)NCC(=O)N[C@@H](C)C(=O)N2CCC[C@H]2C(=O)N2CCC[C@H]2C(=O)N2CCC[C@H]2C(=O)N[C@@H](CO)C(N)=O)NC(=O)[C@H](CC(C)C)NC(=O)[C@H](CC(C)C)NC(=O)[C@H](Cc2ccc(O)cc2)NC(=O)[C@H](CCC(=O)O)NC1=O [TG42],477,21.3,99.4
CC[C@H](C)[C@@H]1NC(=O)[C@H](Cc2ccccc2)NC(=O)[C@@H](NC(=O)C(C)(C)NC(=O)[C@H](CCC(N)=O)NC(=O)[C@H](C)NC(=O)[C@H](CCCCNC(C)=O)NC(=O)[C@H](CCCCN)NC(=O)[C@H](CC(=O)O)NC(=O)[C@H](CC(C)C)NC(=O)[C@](C)(CC(C)C)NC(=O)[C@@H](NC(=O)[C@H](CO)NC(=O)[C@H](Cc2ccc(O)cc2)NC(=O)[C@H](CC(=O)O)NC(=O)[C@H](CO)NC(=O)[C@@H](NC(=O)[C@H](Cc2ccccc2)NC(=O)[C@@H](NC(=O)CNC(=O)[C@H](CCNC(C)=O)NC(=O)C(C)(C)NC(=O)[C@@H](N)Cc2ccc(O)cc2)[C@@H](C)O)[C@@H](C)O)[C@@H](C)CC)CSCC(=O)NCCN(C(=O)CCC(=O)NCCOCCOCC(=O)NCCOCCOCC(=O)NCCCC[C@H](NC(=O)CCCCCCCCCCCCCCCCCCC(=O)O)C(=O)O)CCNC(=O)CSC[C@@H](C(=O)NCC(=O)NCC(=O)N2CCC[C@H]2C(=O)N[C@@H](CO)C(=O)N[C@@H](CO)C(=O)NCC(=O)N[C@@H](C)C(=O)N2CCC[C@H]2C(=O)N2CCC[C@H]2C(=O)N2CCC[C@H]2C(=O)N[C@@H](CO)C(N)=O)NC(=O)[C@H](CC(C)C)NC(=O)[C@H](CC(C)C)NC(=O)[C@H](Cc2ccc(O)cc2)NC(=O)[C@H](CCC(=O)O)NC1=O [TG41] (H-Y[Aib][Dab](Ac)GTFTSDYSI[αMeL]LDKK(Ac)AQ[Aib]CFIEYLLCGGPSSGAPPPS-NH2; linker 21-28 via X1),282,19.6,76.3
CC[C@H](C)[C@@H]1NC(=O)[C@H](Cc2ccccc2)NC(=O)[C@@H](NC(=O)C(C)(C)NC(=O)[C@H](CCC(N)=O)NC(=O)[C@H](C)NC(=O)[C@H](CCCCNC(C)=O)NC(=O)[C@H](CCCCN)NC(=O)[C@H](CC(=O)O)NC(=O)[C@H](CC(C)C)NC(=O)[C@](C)(CC(C)C)NC(=O)[C@@H](NC(=O)[C@H](CO)NC(=O)[C@H](Cc2ccc(O)cc2)NC(=O)[C@H](CC(=O)O)NC(=O)[C@H](CO)NC(=O)[C@@H](NC(=O)[C@H](Cc2ccccc2F)NC(=O)[C@@H](NC(=O)CNC(=O)[C@H](CCC(N)=O)NC(=O)C(C)(C)NC(=O)[C@@H](N)Cc2ccc(O)cc2)[C@@H](C)O)[C@@H](C)O)[C@@H](C)CC)CCCCNC(=O)CN(C(=O)CCCNC(=O)COCCOCCNC(=O)COCCOCCNC(=O)CC[C@H](NC(=O)CCCCCCCCCCCCCCCCCCC(=O)O)C(=O)O)CC(=O)NCCCC[C@@H](C(=O)NCC(=O)NCC(=O)N2CCC[C@H]2C(=O)N[C@@H](CO)C(=O)N[C@@H](CO)C(=O)NCC(=O)N[C@@H](C)C(=O)N2CCC[C@H]2C(=O)N2CCC[C@H]2C(=O)N2CCC[C@H]2C(=O)N[C@@H](CO)C(N)=O)NC(=O)[C@H](CC(C)C)NC(=O)[C@H](CC(C)C)NC(=O)[C@H](Cc2ccc(O)cc2)NC(=O)[C@H](CCC(=O)O)NC1=O [TG85],254,61.2,330
CC[C@H](C)[C@H](NC(=O)[C@H](CO)NC(=O)[C@H](Cc1ccc(O)cc1)NC(=O)[C@H](CC(=O)O)NC(=O)[C@H](CO)NC(=O)[C@@H](NC(=O)[C@H](Cc1ccccc1)NC(=O)[C@@H](NC(=O)CNC(=O)[C@H](Cc1c[nH]cn1)NC(=O)C(C)(C)NC(=O)[C@@H](N)Cc1c[nH]cn1)[C@@H](C)O)[C@@H](C)O)C(=O)N[C@@H](Cc1ccc(O)cc1)C(=O)N[C@H]1CSCC(=O)NCCN(C(=O)CCC(=O)NCCOCCOCC(=O)NCCOCCOCC(=O)NCCCC[C@H](NC(=O)CCCCCCCCCCCCCCCCCCC(=O)O)C(=O)O)CCNC(=O)CSC[C@@H](C(=O)N[C@@H](Cc2ccccc2)C(=O)N[C@H](C(=O)N[C@@H](CCC(N)=O)C(=O)N[C@@H](Cc2c[nH]c3ccccc23)C(=O)N[C@@H](CC(C)C)C(=O)N[C@@H](CC(C)C)C(=O)N[C@@H](CCC(=O)O)C(=O)NCC(=O)NCC(=O)N2CCC[C@H]2C(=O)N[C@@H](CO)C(=O)N[C@@H](CO)C(=O)NCC(=O)N[C@@H](C)C(=O)N2CCC[C@H]2C(=O)N2CCC[C@H]2C(=O)N2CCC[C@H]2C(=O)N[C@@H](CO)C(N)=O)C(C)C)NC(=O)C(C)(C)NC(=O)[C@H](C)NC(=O)[C@H](Cc2ccc(O)cc2)NC(=O)[C@H](CCCNC(=N)N)NC(=O)[C@H](CCCCN)NC(=O)[C@H](CCC(=O)O)NC1=O [TG8],243,426,836
